Test results published in patent US9187469B2, “Morpholinylbenzotriazines for use in cancer therapy” (Merck Patent GmbH, priority 2011, dated 2015).
Like-named read-outs stand apart in the source and are kept apart here.

Tests used:
[1] = target: T1, DNA-PK (Homo sapiens (Human), UniProt P78527); assay: DNA-PK biochemical assay (FlashPlate kinase assay, Example 4); conditions: 5 μM ATP
Experimental: The kinase assay was carried out in streptavidin-coated […] microtitre FlashPlates®. To this end, 1.5 μg of the DNA-PK/protein complex and 100 ng of biotinylated substrate, such as, for example, PESQEAFADLWKK biotin-NH2 (“biotin-DNA-PK peptide”), in a total volume of 36.5 μl (34.25 mM HEPES/KOH, 7.85 mM Tris-HCl, 68.5 mM KCl, 5 μM ATP, 6.85 mM MgCl2, 0.5 mM EDTA, 0.14 mM EGTA, 0.69 mM DTT, pH 7.4), were incubated at room temperature for 90 min with 500 ng of DNA from calf thymus, 0.1 μCi of 33P-ATP and 1.8% of DMSO per well with or without the test compound. The reaction was stopped using 50 μl/well of 200 mM EDTA. After incubation for a further 30 min at room temperature, the liquid was removed. Each well was washed three times with 100 μl of 0.9% sodium chloride solution. A non-specific reaction (blank value) was determined using 10 μM of a proprietary kinase inhibitor. The radioactivity measurement was carried out by means of a TopCount. IC50 values were calculated in RS1 (Kashishian et al. (2003) Molecular Cancer Therapeutics 1257) and are compiled in Table 1.

[2] = system: DNA-PK phosphorylation at serine 2056 in HCT116 cells; assay: Cellular DNA-PK phosphorylation at serine 2056 (Example 5); assay type: cell-based; conditions: 10 μM bleomycin, six hours
Experimental: HCT116 cells were cultivated in MEM alpha medium with 10% of foetal calf serum, 1 mM sodium pyruvate and 2 mM glutamine at 37° C. and 10% CO2. The cells were detached from the base of the culture vessels with the aid of trypsine/EDTA, centrifuged off in centrifuge tubes and taken up in fresh medium. The cell density was subsequently determined. 200,000 cells were sown per cavity of a 12-well cell culture plate in 1 ml of culture medium and cultivated overnight. Next day, 10 μM bleomycin and test substances in fresh culture medium was added to the cells and these were cultivated for a further six hours. Cell lysis was subsequently carried out. The cell lysates were investigated by SDS polyacrylamide gel electrophoresis by means of DNA-PK-specific antibodies (Abcam ab13852: total DNA-PK; ab18192: phosphoserine 2056 DNA-PK) and Western Blotting. The enzymatic reaction was developed with the aid of a chemiluminescence reagent. The chemiluminescence was recorded with the aid of a documentation system (VersaDoc™, Bio-Rad, USA) and evaluated densitometrically with the aid of instrument-specific software (Quantity One). The signals with phospho-DNA-PK-specific antibodies were standardised to the signal with the antibody against the total protein DNA-PK. IC50 values and percentage inhibition data were determined by referencing to the signal level of the bleomycin-treated vehicle control group.

[3] = system: kinases of the PI3K isoenzyme family; conditions: cited from earlier work
[4] = cited from earlier work
[5] = system: mammal cells; conditions: Rosenzweig et al. (1999); cited from earlier work
[6] = target: T1, DNA-PK; conditions: Hardcastle et al. (2005); cited from earlier work
[7] = system: HCT116 cells; assay: Cellular colony growth test with X-ray irradiation (Example 6); assay type: cell-based; conditions: Homo sapiens, HCT-116; HCT116, at 4.8 Gray
Experimental: The colorectal carcinoma cell line HCT116 was cultivated in MEM alpha medium with 10% of foetal calf serum, 1 mM sodium pyruvate and 2 mM glutamine at 37° C. and 10% CO2. The cells were detached from the base of the culture vessels with the aid of trypsine/EDTA, centrifuged off in centrifuge tubes and taken up in fresh medium. The cell density was subsequently determined. 300 cells were sown out in 6-well cell culture plates in 2 ml of culture medium and cultivated overnight. Next day, the cells were treated with test substances for one hour before the cell culture plates were treated with defined doses of X-rays (in general 0, 2.4, 4.8, 12 Gray; irradiation instrument: Faxitron RX-650; Faxitron X-Ray LLC, USA). In order to determine the dose/effect relationships, the cells were treated with various concentrations of a test substance. After irradiation, the cells are cultivated for a further 24 hours in the presence of the test substance, the culture medium was then replaced with culture medium without test substance, and the cells were cultivated for a further 6-8 days. The cell colonies formed were subsequently stained with the aid of Crystal Violet and counted in a colony counter (Gelcount, Oxford Optronics, UK). Dose/effect curves, in particular IC50 values, were determined using a curve adaptation function for nonlinear dose/effect relationships.

IC50 ([1]; read-out: Bonding DNA-PK IC50) [nM] | SMILES | further results
– | O[C@H](c1nccs1)[C@H]1CCCN(c2nnnc3cc(N4CCOCC4)ccc23)C1 [(S)-[(S)-1-(7-morpholin-4-ylbenzo[d]-1,2,3-triazin-4-yl)piperidin-3-yl]thiazol-2-ylmethanol] | IC50 ([1]; read-out: biochemical activity (assay from Example 4)): 1 nM; cellular activity (assay from Example 5) [2]: sub-micromolar
– | CCN1CCN(CC(=O)Nc2ccc(-c3cccc4c(=O)cc(N5CCOCC5)oc34)c3sc4ccccc4c23)CC1 [KU-0060648] | inhibition of kinases of the PI3K isoenzyme family [3]: potently inhibited; solubility profile in aqueous medium [4]: improved solubility profile
– | O=c1cc(N2CCOCC2)oc2c(-c3ccccc3)cccc12 [LY294002] | increase in sensitivity to ionising irradiation in cellular terms [5]: weak increase
– | O=c1cc(N2CCOCC2)oc2c(-c3cccc4c3sc3ccccc34)cccc12 [NU-7441] | IC50 [6]: 20 nM
< 100 | Cc1cnc([C@@H](O)[C@H]2CCCN(c3nnnc4cc(N5CCOCC5)ccc34)C2)s1 [No. 12, (S)-(5-Methyl-thiazol-2-yl)-[(S)-1-(7-morpholin-4-ylbenzo[d]-1,2,3-triazin-4-yl)-piperidin-3-yl]-methanol] | IC50 [7]: < 400 nM
< 100 | O[C@@H](c1nccs1)[C@H]1CCCN(c2nnnc3cc(N4CCOCC4)ccc23)C1 [compound 1, (R)-[(S)-1-(7-Morpholin-4-yl-benzo[d]-1,2,3-triazin-4-yl)-piperidin-3-yl]-thiazol-2-yl-methanol] | –
< 100 | O[C@H](c1nccs1)[C@@H]1CCCN(c2nnnc3cc(N4CCOCC4)ccc23)C1 [compound 2, (S)-[(R)-1-(7-Morpholin-4-yl-benzo[d]-1,2,3-triazin-4-yl)-piperidin-3-yl]-thiazol-2-yl-methanol] | –
< 100 | O[C@@H](c1nccs1)[C@@H]1CCCN(c2nnnc3cc(N4CCOCC4)ccc23)C1 [compound 3, (R)-[(R)-1-(7-Morpholin-4-yl-benzo[d]-1,2,3-triazin-4-yl)-piperidin-3-yl]-thiazol-2-yl-methanol] | –
< 100 | Cc1csc([C@@H](O)[C@H]2CCCN(c3nnnc4cc(N5CCOCC5)ccc34)C2)n1 [compound 4, (S)-(4-Methyl-thiazol-2-yl)-[(S)-1-(7-morpholin-4-ylbenzo[d]-1,2,3-triazin-4-yl)-piperidin-3-yl]-methanol] | –
< 100 | Cc1csc([C@H](O)[C@H]2CCCN(c3nnnc4cc(N5CCOCC5)ccc34)C2)n1 [compound 5, (R)-(4-Methyl-thiazol-2-yl)-[(S)-1-(7-morpholin-4-ylbenzo[d]-1,2,3-triazin-4-yl)-piperidin-3-yl]-methanol] | –
< 100 | Cc1csc([C@@H](O)[C@@H]2CCCN(c3nnnc4cc(N5CCOCC5)ccc34)C2)n1 [compound 6, (S)-(4-Methyl-thiazol-2-yl)-[(R)-1-(7-morpholin-4-ylbenzo[d]-1,2,3-triazin-4-yl)-piperidin-3-yl]-methanol] | –
< 100 | Cc1csc([C@H](O)[C@@H]2CCCN(c3nnnc4cc(N5CCOCC5)ccc34)C2)n1 [compound 7, (R)-(4-Methyl-thiazol-2-yl)-[(R)-1-(7-morpholin-4-ylbenzo[d]-1,2,3-triazin-4-yl)-piperidin-3-yl]-methanol] | –
< 100 | C[C@](O)(c1nccs1)[C@H]1CCCN(c2nnnc3cc(N4CCOCC4)ccc23)C1 [compound 8, (R)-1-[(S)-1-(7-Morpholin-4-yl-benzo[d]-1,2,3-triazin-4-yl)-piperidin-3-yl]-1-thiazol-2-yl-ethanol] | –
< 100 | C[C@@](O)(c1nccs1)[C@H]1CCCN(c2nnnc3cc(N4CCOCC4)ccc23)C1 [compound 9, (S)-1-[(S)-1-(7-Morpholin-4-yl-benzo[d]-1,2,3-triazin-4-yl)-piperidin-3-yl]-1-thiazol-2-yl-ethanol] | –
< 100 | Cc1nc([C@H](O)[C@@H]2CCCN(c3nnnc4cc(N5CCOCC5)ccc34)C2)sc1C [compound 10, (R)-(4,5-Dimethyl-thiazol-2-yl)-[(R)-1-(7-morpholin-4-ylbenzo[d]-1,2,3-triazin-4-yl)-piperidin-3-yl]-methanol] | –
< 100 | Cc1nc([C@@H](O)[C@H]2CCCN(c3nnnc4cc(N5CCOCC5)ccc34)C2)sc1C [compound 11, (S)-(4,5-Dimethyl-thiazol-2-yl)-[(S)-1-(7-morpholin-4-ylbenzo[d]-1,2,3-triazin-4-yl)-piperidin-3-yl]-methanol] | –
< 100 | Cc1cnc([C@H](O)[C@H]2CCCN(c3nnnc4cc(N5CCOCC5)ccc34)C2)s1 [compound 13, (R)-(5-Methyl-thiazol-2-yl)-[(S)-1-(7-morpholin-4-ylbenzo[d]-1,2,3-triazin-4-yl)-piperidin-3-yl]-methanol] | –
< 100 | COc1ccc([C@@H](O)[C@H]2CCCN(c3nnnc4cc(N5CCOCC5)ccc34)C2)nn1 [compound 14, (S)-(6-Methoxy-pyridazin-3-yl)-[(S)-1-(7-morpholin-4-yl-benzo[d]-1,2,3-triazin-4-yl)-piperidin-3-yl]-methanol] | –
< 100 | COc1ccc([C@H](O)[C@H]2CCCN(c3nnnc4cc(N5CCOCC5)ccc34)C2)nn1 [compound 15, (R)-(6-Methoxy-pyridazin-3-yl)-[(S)-1-(7-morpholin-4-yl-benzo[d]-1,2,3-triazin-4-yl)-piperidin-3-yl]-methanol] | –
< 100 | COc1ccc([C@@H](O)[C@H]2CCCN(c3nnnc4cc(N5CCOCC5)ccc34)C2)cn1 [compound 16, (S)-(6-Methoxy-pyridin-3-yl)-[(S)-1-(7-morpholin-4-ylbenzo[d]-1,2,3-triazin-4-yl)-piperidin-3-yl]-methanol] | –
< 100 | COc1ccc([C@H](O)[C@H]2CCCN(c3nnnc4cc(N5CCOCC5)ccc34)C2)cn1 [compound 17, (R)-(6-Methoxy-pyridin-3-yl)-[(S)-1-(7-morpholin-4-ylbenzo[d]-1,2,3-triazin-4-yl)-piperidin-3-yl]-methanol] | –
< 100 | CC(C)n1cc([C@@H](O)[C@H]2CCCN(c3nnnc4cc(N5CCOCC5)ccc34)C2)cn1 [compound 18, (S)-(1-Isopropyl-1H-pyrazol-4-yl)-[(S)-1-(7-morpholin-4-yl-benzo[d]-1,2,3-triazin-4-yl)-piperidin-3-yl]-methanol] | –
< 100 | CC(C)(C)n1cc([C@@H](O)[C@H]2CCCN(c3nnnc4cc(N5CCOCC5)ccc34)C2)cn1 [compound 19, (S)-(1-tert-Butyl-1H-pyrazol-4-yl)-[(S)-1-(7-morpholin-4-yl-benzo[d]-1,2,3-triazin-4-yl)-piperidin-3-yl]-methanol] | –
< 100 | CCn1cc([C@@H](O)[C@H]2CCCN(c3nnnc4cc(N5CCOCC5)ccc34)C2)cn1 [compound 20, (S)-(1-Ethyl-1H-pyrazol-4-yl)-[(S)-1-(7-morpholin-4-ylbenzo[d]-1,2,3-triazin-4-yl)-piperidin-3-yl]-methanol] | –
